In paper PMC3001460, “FYVE-Dependent Endosomal Targeting of an Arrestin-Related Protein in Amoeba” (PLoS ONE, 2010):
One block for each molecule: values may come before it.

Tests used:
[1] = target: T1, MBP-FYVE (AdcA FYVE domain) (Dictyostelium discoideum, UniProt Q54CH1); assay: intrinsic tryptophan fluorescence titration; type: binding; conditions: read-out: affinity
T1 sequence (Q54CH1 458-530): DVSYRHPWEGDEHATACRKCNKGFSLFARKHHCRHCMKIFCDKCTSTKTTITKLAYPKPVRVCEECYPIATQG

ArfA-His6 = target: T2, ArfA-His6 (Dictyostelium discoideum, UniProt O00909 1-182); assay: pull-down; GST-AdcAC on glutathione Sepharose beads, ArfA-His6 preincubated 1 hr at 4°C with 100 µM GDPβS or no extra nucleotide, then overnight at 4°C; 20 mM Tris pH 7.5, 25 mM NaCl, 2 mM DTT, 2 mM EDTA, 2.5 mM MgCl2, 1 mM ATP, 0.2% Triton X-100; Western blot with anti-Arf antibody; conditions: both partners purified
T2 construct: Preincubated with 100 µM GDPβS, 100 µM GTPγS or no extra nucleotide before the pull-down; The nucleotide state is told by the assay; also called Dd-ArfA; ADP-ribosylation factor ArfA; source: E. coli BL21(DE3), purified (Ni-NTA agarose); not shown: His6, C-terminal, kept
T2 sequence (O00909 whole entry): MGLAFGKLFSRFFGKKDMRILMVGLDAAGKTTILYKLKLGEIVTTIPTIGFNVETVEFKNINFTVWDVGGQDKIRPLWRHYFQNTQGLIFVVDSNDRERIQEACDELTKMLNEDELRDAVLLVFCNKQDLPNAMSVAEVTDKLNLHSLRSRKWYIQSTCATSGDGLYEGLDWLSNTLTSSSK

Kd [1]: ~20 µM
Molecule: O=P(O)(O)O[C@@H]1[C@H](O)[C@H](OP(=O)(O)O)[C@@H](O)[C@H](O)[C@H]1O [Ins(1,3)P2]

binding result (ArfA-His6): binds
B1: GST-AdcAC (C domain of the arrestin core of AdcA, amino acids 311 to 459, fused to GST) (domain or fragment, Dictyostelium discoideum, UniProt Q54CH1 311-459, looked up)
chain: MLTKGKLHVKTWLNKNAYFPGETLVAKMKANNTSIKPTRKISLVVHHTMQLKTRLYHRCITNAIYKQQYDGFQPCFYGKRYLPFSIPVDLKPSSSLGKHITSSYLLELECDIPMAIDLSVTLPLTLFAPQFLYSTVPSQPPGTPLPPDV
notes: AdcA (arrestin-domain containing protein A) of Dictyostelium discoideum, whole protein 580 amino acids; C domain of the arrestin core, amino acids 311 to 459, in pGEX-KG; also called GST-AdcC; C-terminal domain of the AdcA arrestin core; not shown: GST, N-terminal, kept
